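Dose response: 5 concentrations. Exposure: 48 h. Format: 96-well plates. Endpoint: linear interpolation; highest concentration if not reached. At the GI50, growth is halved.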 Active and inactive are the calls of the source. Cut-off read from the data, not from the text of the source: active = GI50 up to about 1.1 µM and inactive = higher.
How the values were obtained:
Assay in all cases: NCI tumour cell line growth inhibition, 48 h
[1] = tested on: NCI-H23
[2] = tested on: ACHN
[3] = tested on: HOP-92
[4] = tested on: EKVX
[5] = tested on: SK-MEL-5
[6] = tested on: MOLT-4
[7] = tested on: HOP-62
[8] = tested on: SNB-75
[9] = tested on: HCC 2998
[10] = tested on: SNB-19
[11] = tested on: MCF7
[12] = tested on: NCI/ADR-RES
[13] = tested on: SF-295
[14] = tested on: KM12
[15] = tested on: UACC-62
[16] = tested on: CCRF-CEM
[17] = tested on: COLO 205
[18] = tested on: M14
[19] = tested on: NCI-H522
[20] = tested on: UACC-257

Measured: GI50

CC[N+](C)(CC)CCNC(=O)C(O)(c1ccccc1)c1ccccc1
inactive: [1] > 100 µM | [2] > 100 µM | [3] > 100 µM | [4] > 100 µM | [5] > 100 µM | [6] > 100 µM | [7] > 100 µM | [8] 35.6 µM | [9] > 100 µM | [10] > 100 µM | [11] > 100 µM | [12] > 100 µM | [13] > 100 µM | [14] 72.9 µM | [15] > 100 µM | [16] > 100 µM | [17] > 100 µM | [18] > 100 µM | [19] > 100 µM | [20] > 100 µM

Cc1ccc(-c2c(C#N)c(-c3ccc(C)cc3)n(NS(=O)(=O)c3ccccc3)c(=O)c2C#N)cc1
inactive: [2] 37.5 µM | [3] 28.6 µM | [4] 56.6 µM | [5] 16 µM | [6] 25.2 µM | [7] 49.2 µM | [8] > 100 µM | [9] 25.2 µM | [10] 42.1 µM | [11] 24 µM | [12] 50.5 µM | [13] 32.5 µM | [14] 56.5 µM | [15] 34.1 µM | [16] 24.4 µM | [17] 89.5 µM | [18] 40.6 µM | [19] 50.1 µM | [20] 86.1 µM

C[C@H](CCC(=O)O[C@@H]1CC[C@@]2(C)C(CC[C@H]3[C@@H]4CC[C@H]([C@H](C)CCc5nc6ccccc6[nH]5)[C@@]4(C)CC[C@@H]32)C1)[C@H]1CC[C@H]2[C@@H]3CCC4C[C@H](O)CC[C@]4(C)[C@H]3CC[C@]12C (stereo partly drawn)
inactive: [1] 4.53 µM | [2] 4.13 µM | [3] > 100 µM | [4] > 100 µM | [5] > 100 µM | [6] > 100 µM | [7] 25.7 µM | [8] 3.97 µM | [9] 2.54 µM | [10] 5.48 µM | [11] 6.34 µM | [12] > 100 µM | [13] 16.7 µM | [14] > 100 µM | [15] > 100 µM | [16] > 100 µM | [17] > 100 µM | [18] > 100 µM | [19] 3.16 µM | [20] > 100 µM

O=C(O)/C(=C\c1ccccc1)Cc1ccccc1
inactive: [1] > 100 µM | [2] > 100 µM | [3] > 100 µM | [4] > 100 µM | [5] > 100 µM | [6] > 100 µM | [7] > 100 µM | [8] > 100 µM | [9] > 100 µM | [10] > 100 µM | [11] > 100 µM | [12] > 100 µM | [13] > 100 µM | [14] > 100 µM | [15] > 100 µM | [16] > 100 µM | [17] > 100 µM | [18] > 100 µM | [19] > 100 µM | [20] > 100 µM

COc1ccc(NC(=O)/C(=N\NC(=O)C[n+]2ccccc2)c2c(O)c3ccc(O)cc3oc2=O)c([N+](=O)[O-])c1
inactive: [1] > 100 µM | [2] > 100 µM | [3] 32.3 µM | [4] > 100 µM | [5] > 100 µM | [6] 85.5 µM | [8] 92 µM | [9] > 100 µM | [10] > 100 µM | [11] > 100 µM | [12] > 100 µM | [13] > 100 µM | [14] 40.1 µM | [15] > 100 µM | [16] > 100 µM | [17] > 100 µM | [18] > 100 µM | [19] > 100 µM | [20] > 100 µM

O=[N+]([O-])c1ccc2ncccc2c1CCc1c([N+](=O)[O-])ccc2ncccc12
inactive: [1] > 100 µM | [2] > 100 µM | [3] > 35.3 µM | [4] > 100 µM | [5] > 100 µM | [6] > 100 µM | [7] > 100 µM | [8] > 100 µM | [9] > 100 µM | [10] > 100 µM | [11] > 100 µM | [12] > 100 µM | [13] > 100 µM | [14] > 100 µM | [15] > 100 µM | [16] > 100 µM | [17] > 100 µM | [18] > 100 µM | [19] > 100 µM | [20] > 100 µM

CC(=O)Nc1cc2nc3n(c2cc1C)CCC3OC(C)=O (stereo not drawn)
inactive: [1] > 100 µM | [2] > 100 µM | [3] > 100 µM | [4] > 100 µM | [6] > 100 µM | [8] > 100 µM | [9] > 100 µM | [10] > 100 µM | [11] > 100 µM | [12] > 100 µM | [13] > 100 µM | [14] > 100 µM | [15] > 100 µM | [16] > 100 µM | [17] > 100 µM | [18] > 100 µM | [19] > 100 µM | [20] > 100 µM

CCc1ccc2oc(=O)ccc2c1
inactive: [1] > 100 µM | [2] > 100 µM | [3] > 100 µM | [4] 32.2 µM | [5] > 100 µM | [6] > 100 µM | [7] > 100 µM | [8] > 100 µM | [9] > 100 µM | [10] > 100 µM | [11] > 100 µM | [12] > 100 µM | [13] > 100 µM | [14] > 100 µM | [15] 35.7 µM | [16] > 100 µM | [17] > 100 µM | [18] > 100 µM | [19] > 100 µM | [20] > 100 µM

CC(=O)Nc1ccc(NCC(=O)Nn2cnc3ccc(S(=O)(=O)Nc4ccc(NC(C)=O)cc4)cc3c2=O)cc1
inactive: [1] > 100 µM | [2] > 100 µM | [3] > 100 µM | [4] > 100 µM | [6] > 100 µM | [7] > 100 µM | [8] > 100 µM | [9] > 100 µM | [10] > 100 µM | [11] > 100 µM | [12] > 100 µM | [13] > 100 µM | [14] > 100 µM | [15] > 100 µM | [16] > 100 µM | [17] > 100 µM | [18] > 100 µM | [19] > 100 µM | [20] > 100 µM

CC1(C)CC(=O)C(=CNc2nc(-c3cccc([N+](=O)[O-])c3)cs2)C(=O)C1
inactive: [1] 18.1 µM | [2] 18.2 µM | [3] 17.3 µM | [4] 14.7 µM | [6] 10.5 µM | [7] 19.6 µM | [8] 14.9 µM | [9] 15.7 µM | [10] 15.3 µM | [11] 15.8 µM | [12] 18 µM | [13] 37.2 µM | [14] 16.6 µM | [15] 16 µM | [16] 2 µM | [17] 14.8 µM | [18] 15.8 µM | [19] 9.04 µM | [20] 22.5 µM

O=c1[nH]c2ccc(Cl)cc2c2oc(-c3ccccc3)nc12
inactive: [1] 25.2 µM | [2] 24.5 µM | [3] 28.4 µM | [4] 30.5 µM | [5] 25.9 µM | [6] 76.2 µM | [7] 20.7 µM | [9] 26.3 µM | [10] 19.8 µM | [11] 6.07 µM | [12] 29.5 µM | [13] 21.6 µM | [14] 40.8 µM | [15] 70.5 µM | [16] 45.5 µM | [17] 65.8 µM | [18] 88.5 µM | [19] 16.9 µM | [20] 52.7 µM

N#Cc1c(-c2ccc(Cl)cc2)c(C#N)c(=O)n(NS(=O)(=O)c2ccccc2)c1S
inactive: [1] 39.3 µM | [2] 24.9 µM | [3] 44.7 µM | [4] 32.6 µM | [5] 14.2 µM | [6] 21.6 µM | [8] 28.7 µM | [9] > 10 µM | [11] 32.6 µM | [12] 21.2 µM | [13] 34.2 µM | [15] 19.1 µM | [16] 5.79 µM | [17] 30.5 µM | [18] 26.7 µM | [19] 18.2 µM | [20] 46.7 µM

COC(=O)C1=COC2OC3C(C(C)O)C(=O)OC34C=CC1C24 (stereo not drawn)
inactive: [1] 80.9 µM | [2] 44.7 µM | [3] 55.7 µM | [4] 81.7 µM | [5] 57 µM | [6] 24.3 µM | [8] 35.8 µM | [9] > 100 µM | [10] 51.5 µM | [11] 40.1 µM | [12] 25 µM | [13] 56.6 µM | [14] 37.2 µM | [15] 29.3 µM | [16] 14.9 µM | [17] 40.6 µM | [18] 55.6 µM | [19] 14.8 µM | [20] > 100 µM

Nc1c(Br)cc(-c2nc3ccccc3s2)cc1Br
inactive: [2] > 100 µM | [3] > 100 µM | [4] > 100 µM | [5] > 100 µM | [6] > 100 µM | [7] > 100 µM | [8] > 100 µM | [9] 30.6 µM | [10] > 100 µM | [11] 18.9 µM | [12] > 100 µM | [13] > 100 µM | [14] 75.7 µM | [15] > 100 µM | [16] > 100 µM | [17] > 100 µM | [18] > 100 µM | [19] > 100 µM | [20] > 100 µM

— ChEMBL document CHEMBL1201862, “PubChem BioAssay data set” (2004)
